Among the data in ChEMBL document CHEMBL1133939, “Structure-activity relationship studies of a bisbenzimidazole-based, Zn(2+)-dependent inhibitor of HCV NS3 serine protease” (Bioorg Med Chem Lett, 2001) are IC50 values, retold here.

Structures are written as SMILES.

T1 sequence (A3EZJ3 whole entry): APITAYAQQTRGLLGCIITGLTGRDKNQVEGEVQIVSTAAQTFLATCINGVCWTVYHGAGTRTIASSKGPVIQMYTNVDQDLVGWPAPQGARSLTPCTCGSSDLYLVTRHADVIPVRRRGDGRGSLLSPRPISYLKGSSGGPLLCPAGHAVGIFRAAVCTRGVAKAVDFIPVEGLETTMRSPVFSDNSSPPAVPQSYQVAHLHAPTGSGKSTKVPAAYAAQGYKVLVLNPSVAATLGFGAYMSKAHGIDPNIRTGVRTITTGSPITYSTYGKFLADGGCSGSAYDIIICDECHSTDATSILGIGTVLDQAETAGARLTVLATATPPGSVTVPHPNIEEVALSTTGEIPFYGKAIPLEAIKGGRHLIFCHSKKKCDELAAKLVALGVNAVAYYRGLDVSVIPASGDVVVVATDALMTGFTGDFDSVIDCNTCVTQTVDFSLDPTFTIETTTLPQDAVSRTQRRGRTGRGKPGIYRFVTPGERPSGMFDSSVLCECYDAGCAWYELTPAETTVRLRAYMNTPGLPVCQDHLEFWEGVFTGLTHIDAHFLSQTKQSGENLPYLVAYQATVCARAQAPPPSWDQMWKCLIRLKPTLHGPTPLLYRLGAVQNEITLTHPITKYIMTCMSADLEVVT

One assay concerns the target T1, NS3 (Hepatitis C virus, UniProt A3EZJ3). The assay can be described thus: Inhibitory activity against hepatitis C virus (HCV) NS3 protease in the absence of Zn2+. More on the design: species or system Hepacivirus hominis.
What is called IC50 is the midpoint of a concentration-inhibition curve. The compound `Cn1c(Cc2nc3cc(C(N)=O)ccc3[nH]2)nc2ccc(C(=O)NC(CP(=O)(O)O)C(=O)O)cc21` (configuration not stated) displayed a half-maximal inhibitory concentration (IC50) of 167 µM.

A further assay has as its target T1, NS3. The assay can be described thus: Inhibitory activity against hepatitis C virus (HCV) NS3 protease in the presence of Zn2+. Details: species or system Hepacivirus hominis.
As for `Cn1c(Cc2nc3cc(C(N)=O)ccc3[nH]2)nc2ccc(C(=O)NCCc3ccc(OCC(=O)O)cc3)cc21`, the IC50 was determined as 16 µM. Same read-out and setting: for `Cn1c(Cc2nc3ccc(C(N)=O)cc3[nH]2)nc2ccc(C(=O)NC(CCCCCP(=O)(O)O)C(=O)O)cc21` (configuration not stated) the value was 0.51 µM; for `Cn1c(Cc2nc3ccc(C(N)=O)cc3[nH]2)nc2ccc(C(=O)NC(Cc3ccc(C(=O)O)c(OCC(=O)O)c3)C(=O)O)cc21` (configuration not stated), 9 µM; for `Cn1c(Cc2nc3cc(C(N)=O)ccc3[nH]2)nc2ccc(C(=O)NC(CCCP(=O)(O)O)C(=O)O)cc21` (configuration not stated), 0.82 µM. On to `COC(=O)c1ccccc1S(=O)(=O)NC(=O)C[C@H](NC(=O)c1ccc2nc(Cc3nc4ccc(C(N)=O)cc4[nH]3)n(C)c2c1)C(=O)OCc1ccccc1`, for which the IC50 came out at 37 µM.

Regarding `COC(=O)c1ccccc1S(=O)(=O)NC(=O)CC(NC(=O)c1ccc2nc(Cc3nc4ccc(C(N)=O)cc4[nH]3)n(C)c2c1)C(=O)O` (configuration not stated), the 50% inhibitory concentration (IC50) was 8.1 µM. Consider `COC(=O)c1ccccc1S(=O)(=O)NC(=O)CC[C@H](NC(=O)c1ccc2nc(Cc3nc4cc(C(N)=O)ccc4[nH]3)n(C)c2c1)C(=O)OCc1ccccc1`, for which the half-maximal inhibitory concentration (IC50) was found to be 29 µM. Regarding `COC(=O)c1ccccc1S(=O)(=O)NC(=O)CC(NC(=O)c1ccc2nc(Cc3nc4ccccc4[nH]3)n(C)c2c1)C(=O)O` (configuration not stated), the IC50 amounted to 11 µM. With `Cn1c(Cc2nc3ccc(C(N)=O)cc3[nH]2)nc2ccc(C(=O)NC(CCC(=O)NS(=O)(=O)c3ccccc3C(=O)O)C(=O)O)cc21` (configuration not stated), the IC50 turned out to be 2.6 µM. As for `Cn1c(Cc2nc3ccccc3[nH]2)nc2ccc(C(=O)NC(CC(=O)NS(=O)(=O)c3ccccc3C(=O)O)C(=O)O)cc21` (configuration not stated), the IC50 amounted to 3.4 µM.

As for `Cn1c(Cc2nc3ccc(C(N)=O)cc3[nH]2)nc2ccc(C(=O)NC(Cc3ccc(OCC(=O)O)cc3)C(=O)O)cc21` (configuration not stated), the 50% inhibitory concentration (IC50) was 1 µM.

In the case of `Cn1c(Cc2nc3cc(C(N)=O)ccc3[nH]2)nc2ccc(C(=O)NC(Cc3cccc(C(=O)O)c3)C(=O)O)cc21` (configuration not stated), the half-maximal inhibitory concentration (IC50) is 25 µM.

As for `Cn1c(Cc2nc3ccccc3[nH]2)nc2ccc(C(=O)NC(CCC(=O)N(CC(=O)O)CC(=O)O)C(=O)O)cc21` (configuration not stated), the IC50 came to 7.7 µM.

`Cn1c(Cc2nc3cc(C(N)=O)ccc3[nH]2)nc2ccc(C(=O)NC(CP(=O)(O)O)C(=O)O)cc21` (configuration not stated): the concentration for half-maximal inhibition (IC50) stood at 0.2 µM. In the case of `Cn1c(Cc2nc3cc(C(N)=O)ccc3[nH]2)nc2ccc(C(=O)Nc3cc(C(=O)O)cc(C(=O)NC(CCC(=O)O)C(=O)O)c3)cc21` (configuration not stated), the IC50 was determined as 2 µM. In the case of `Cn1c(Cc2nc3ccc(C(N)=O)cc3[nH]2)nc2ccc(C(=O)Nc3ccc(C(=O)NC(CCC(=O)O)C(=O)O)cc3)cc21` (configuration not stated), the IC50 is 17 µM. As for `Cn1c(Cc2nc3ccc(C(N)=O)cc3[nH]2)nc2ccc(C(=O)Nc3cccc(C(=O)NCCCC(=O)O)c3)cc21`, the IC50 worked out at 43 µM. Consider `Cn1c(Cc2nc3ccccc3[nH]2)nc2ccc(C(=O)NCCc3ccc(OCC(=O)NS(=O)(=O)c4ccccc4)cc3)cc21`, for which the concentration for half-maximal inhibition (IC50) came out at 12 µM.

With `Cn1c(Cc2nc3ccc(C(N)=O)cc3[nH]2)nc2ccc(C(=O)Nc3cccc(C(=O)NC(CCC(=O)O)C(=O)O)c3)cc21` (configuration not stated), the concentration for half-maximal inhibition (IC50) was found to be 6.4 µM. Same read-out and setting: next, `Cn1c(Cc2nc3ccc(C(N)=O)cc3[nH]2)nc2ccc(C(=O)NC(Cc3ccc(O)c(C(=O)O)c3)C(=O)O)cc21` (configuration not stated): 7 µM. On the same count and under the same terms, next, `Cn1c(Cc2nc3cc(C(N)=O)ccc3[nH]2)nc2ccc(C(=O)NC(Cc3ccc(OCC(=O)O)c(C(=O)O)c3)C(=O)O)cc21` (configuration not stated): 4 µM; `Cn1c(Cc2nc3cc(C(N)=O)ccc3[nH]2)nc2ccc(C(=O)Nc3cc(C(=O)O)cc(C(=O)NC(CC(=O)O)C(=O)O)c3)cc21` (configuration not stated): 1 µM; `Cn1c(Cc2nc3cc(C(N)=O)ccc3[nH]2)nc2ccc(C(=O)NC(CC(C(=O)O)C(=O)O)C(=O)O)cc21` (configuration not stated): 2.6 µM. Consider `Cn1c(Cc2nc3ccc(C(N)=O)cc3[nH]2)nc2ccc(C(=O)NC(Cc3cc(OCC(=O)O)ccc3C(=O)O)C(=O)O)cc21` (configuration not stated), for which the IC50 is 12 µM. With `Cn1c(Cc2nc3cc(C(N)=O)ccc3[nH]2)nc2ccc(C(=O)NC(CCP(=O)(O)O)C(=O)O)cc21` (configuration not stated), the IC50 came to 0.87 µM. In the case of `Cn1c(Cc2nc3cc(C(N)=O)ccc3[nH]2)nc2ccc(C(=O)NC(CC(=O)NS(=O)(=O)c3ccccc3C(=O)O)C(=O)O)cc21` (configuration not stated), the IC50 was found to be 1.6 µM.
